Assay results published in PubChem BioAssay AID326 (DTP/NCI, 2004).
Several values for one entry are separate records, joined by “and”; a condition that tells them apart may be missing. Equal entries are not always repeated. Toxic doses and inconclusive results are not listed.

System: CD2F1 mice, P388/DHAQ leukemia ip, median survival T/C
Assay: NCI In Vivo Anticancer Drug Screen. Data for tumor model P388 Leukemia resistant to Dihydroxy Anthracenedione; NSC 299195 (intraperitoneal) in CD2F1 (CDF1) mice
Details: endpoint: median survival time, higher = longer survival
Description: The antitumor activity of compounds was measured in mice bearing transplantable tumors. Survival or tumor size were measured and the results are expressed as the measurement made in the treated group (T) divided by the measurement made in the vehicle treated control group (C). The tumor model used in this assay is P388 Leukemia resistant to Dihydroxy Anthracenedione; NSC 299195 (intraperitoneal) in CD2F1 (CDF1) mice

[1] = dose: 13.0 mg/kg/injection, schedule: Q04DX003 (ip), vehicle: saline
[2] = dose: 21.6 mg/kg/injection, schedule: Q04DX003 (ip), vehicle: saline
[3] = dose: 36.0 mg/kg/injection, schedule: Q04DX003 (ip), vehicle: saline

With COc1cc([C@@H]2c3cc4c(cc3[C@@H](OC3OC5COC(C)OC5C(O)C3O)[C@H]3COC(=O)[C@H]23)OCO4)cc(OC)c1O (stereo not given in full) the T/C (dose: 7.78 mg/kg/injection, schedule: Q04DX003 (ip), vehicle: water) was 123 % of control, the T/C (dose: 13.0 mg/kg/injection, schedule: Q04DX003 (ip), vehicle: water) was 124 % of control and the T/C (dose: 18.0 mg/kg/injection, schedule: Q04DX003 (ip), vehicle: clinical formulation) was 155 % of control. The T/C (dose: 18.0 mg/kg/injection, schedule: Q04DX003 (ip), vehicle: water) was 153 % of control, the T/C (dose: 30.0 mg/kg/injection, schedule: Q04DX003 (ip), vehicle: clinical formulation) was 162 % of control and the T/C (dose: 30.0 mg/kg/injection, schedule: Q04DX003 (ip), vehicle: water) was 105 % of control. For the same compound, the T/C (dose: 50.0 mg/kg/injection, schedule: Q04DX003 (ip), vehicle: clinical formulation) was 166 % of control.
With O=C1c2ccccc2C(=O)c2c(NCCNCCO)ccc(NCCNCCO)c21 the T/C [1] was 109 % of control, the T/C [2] was 120 % of control and the T/C [3] was 123 % of control. The T/C (dose: 60.0 mg/kg/injection, schedule: Q04DX003 (ip), vehicle: saline) was 108 % of control.
S=P(N1CC1)(N1CC1)N1CC1 was tested, and the T/C (dose: 3.24 mg/kg/injection, schedule: Q04DX002 (ip), vehicle: saline) was 103 % of control, the T/C (dose: 5.4 mg/kg/injection, schedule: Q04DX002 (ip), vehicle: saline) was 122 % of control and the T/C (dose: 15.0 mg/kg/injection, schedule: Q04DX002 (ip), vehicle: saline) was 183 % of control.
For CO[C@@]12[C@H](COC(N)=O)C3=C(C(=O)C(C)=C(N)C3=O)N1C[C@@H]1N[C@@H]12, the T/C (dose: 1.08 mg/kg/injection, schedule: Q04DX002 (ip), vehicle: saline) was 95 % of control, the T/C (dose: 1.62 mg/kg/injection, schedule: Q04DX003 (ip), vehicle: saline) was 166 % of control and the T/C (dose: 1.8 mg/kg/injection, schedule: Q04DX002 (ip), vehicle: saline) was 108 % of control. The T/C (dose: 2.7 mg/kg/injection, schedule: Q04DX003 (ip), vehicle: saline) was 172 % of control, the T/C (dose: 3.0 mg/kg/injection, schedule: Q04DX002 (ip), vehicle: saline) was 103 % of control and the T/C (dose: 4.5 mg/kg/injection, schedule: Q04DX003 (ip), vehicle: saline) was 168 % of control. For the same compound, the T/C (dose: 5.0 mg/kg/injection, schedule: Q04DX002 (ip), vehicle: saline) was 117 % of control and the T/C (dose: 7.5 mg/kg/injection, schedule: Q04DX003 (ip), vehicle: saline) was 108 % of control.
For CCN(CC)CCNc1ccc(C)c2sc3ccccc3c(=O)c12, the T/C (dose: 16.2 mg/kg/injection, schedule: Q01DX005 (ip), vehicle: saline) was 106 % of control, the T/C (dose: 19.4 mg/kg/injection, schedule: Q01DX005 (ip), vehicle: saline) was 100 % of control and the T/C (dose: 19.44 mg/kg/injection, schedule: Q01DX005 (ip), vehicle: saline) was 106 % of control. For the same compound, the T/C (dose: 27.0 mg/kg/injection, schedule: Q01DX005 (ip), vehicle: saline) was 107 % of control, the T/C (dose: 32.4 mg/kg/injection, schedule: Q01DX005 (ip), vehicle: saline) was 102 % of control and 113 % of control and the T/C (dose: 38.9 mg/kg/injection, schedule: Q04DX003 (ip), vehicle: saline) was 106 % of control. The T/C (dose: 45.0 mg/kg/injection, schedule: Q01DX005 (ip), vehicle: saline) was 121 % of control, the T/C (dose: 54.0 mg/kg/injection, schedule: Q01DX005 (ip), vehicle: saline) was 106 % of control and 124 % of control and the T/C (dose: 64.8 mg/kg/injection, schedule: Q04DX003 (ip), vehicle: saline) was 104 % of control. For the same compound, the T/C (dose: 90.0 mg/kg/injection, schedule: Q01DX005 (ip), vehicle: saline) was 112 % of control, the T/C (dose: 108.0 mg/kg/injection, schedule: Q04DX003 (ip), vehicle: saline) was 120 % of control and the T/C (dose: 125.0 mg/kg/injection, schedule: Q01DX005 (ip), vehicle: saline) was 105 % of control.
In the case of O=NN(CCCl)C(=O)NCCCl, the T/C (dose: 5.4 mg/kg/injection, schedule: Q04DX003 (ip), vehicle: saline + alcohol) is reported as 193 % of control, the T/C (dose: 6.48 mg/kg/injection, schedule: Q04DX002 (ip), vehicle: saline + alcohol) is reported as 150 % of control and the T/C (dose: 9.0 mg/kg/injection, schedule: Q04DX003 (ip), vehicle: saline + alcohol) is reported as 319 % of control. The T/C (dose: 10.8 mg/kg/injection, schedule: Q04DX002 (ip), vehicle: saline + alcohol) was 168 % of control and 205 % of control, the T/C (dose: 15.0 mg/kg/injection, schedule: Q04DX003 (ip), vehicle: saline + alcohol) was 463 % of control and the T/C (dose: 18.0 mg/kg/injection, schedule: Q04DX002 (ip), vehicle: saline + alcohol) was 317 % of control and 412 % of control. The T/C (dose: 25.0 mg/kg/injection, schedule: Q04DX003 (ip), vehicle: saline + alcohol) was 463 % of control and the T/C (dose: 30.0 mg/kg/injection, schedule: Q04DX002 (ip), vehicle: saline + alcohol) was 412 % of control and 420 % of control.
For O=C(Nc1ccc(C2=NCCN2)cc1)c1ccc(C(=O)Nc2ccc(C3=NCCN3)cc2)c(Cl)c1, the T/C (dose: 16.2 mg/kg/injection, schedule: Q04DX003 (ip), vehicle: saline with Tween-80) was 94 % of control, the T/C (dose: 27.0 mg/kg/injection, schedule: Q04DX003 (ip), vehicle: saline with Tween-80) was 98 % of control and the T/C (dose: 45.0 mg/kg/injection, schedule: Q04DX003 (ip), vehicle: saline with Tween-80) was 97 % of control.
O=NN(CCCl)C(=O)NC1CCCCC1 was tested, and the T/C (dose: 7.2 mg/kg/injection, schedule: Q04DX003 (ip), vehicle: saline + alcohol) was 192 % of control, the T/C (dose: 12.0 mg/kg/injection, schedule: Q04DX003 (ip), vehicle: saline + alcohol) was 337 % of control and the T/C (dose: 20.0 mg/kg/injection, schedule: Q04DX003 (ip), vehicle: saline + alcohol) was 542 % of control. For the same compound, the T/C (dose: 33.3 mg/kg/injection, schedule: Q04DX003 (ip), vehicle: saline + alcohol) was 202 % of control.
With Cc1c2ccncc2c(C)c2c1[nH]c1ccccc12 the T/C (dose: 13.0 mg/kg/injection, schedule: Q04DX003 (ip), vehicle: saline with Tween-80) was 101 % of control and 107 % of control, the T/C (dose: 25.9 mg/kg/injection, schedule: Q04DX002 (ip), vehicle: saline with Tween-80) was 97 % of control and the T/C (dose: 32.4 mg/kg/injection, schedule: Q04DX002 (ip), vehicle: Klucel (hydroxypropylcellulose) (HPC)) was 111 % of control. The T/C (dose: 43.2 mg/kg/injection, schedule: Q04DX002 (ip), vehicle: saline with Tween-80) was 105 % of control, the T/C (dose: 54.0 mg/kg/injection, schedule: Q04DX002 (ip), vehicle: Klucel (hydroxypropylcellulose) (HPC)) was 100 % of control and the T/C (dose: 60.0 mg/kg/injection, schedule: Q04DX003 (ip), vehicle: saline with Tween-80) was 116 % of control and 223 % of control and 98 % of control. The T/C (dose: 72.0 mg/kg/injection, schedule: Q04DX002 (ip), vehicle: saline with Tween-80) was 112 % of control, the T/C (dose: 90.0 mg/kg/injection, schedule: Q04DX002 (ip), vehicle: Klucel (hydroxypropylcellulose) (HPC)) was 88 % of control and the T/C (dose: 120.0 mg/kg/injection, schedule: Q04DX002 (ip), vehicle: saline with Tween-80) was 114 % of control. The T/C (dose: 150.0 mg/kg/injection, schedule: Q04DX002 (ip), vehicle: Klucel (hydroxypropylcellulose) (HPC)) was 83 % of control.
In the case of COc1cc([C@@H]2c3cc4c(cc3[C@@H](OC3OC5CO[C@@H](c6cccs6)OC5C(O)C3O)[C@H]3COC(=O)[C@H]23)OCO4)cc(OC)c1O (stereo not given in full), the T/C (dose: 3.89 mg/kg/injection, schedule: Q04DX003 (ip), vehicle: clinical formulation) is reported as 114 % of control, the T/C (dose: 3.89 mg/kg/injection, schedule: Q04DX003 (ip), vehicle: saline) is reported as 118 % of control and the T/C (dose: 6.48 mg/kg/injection, schedule: Q04DX003 (ip), vehicle: clinical formulation) is reported as 121 % of control. For the same compound, the T/C (dose: 7.78 mg/kg/injection, schedule: Q04DX003 (ip), vehicle: saline) was 108 % of control, the T/C (dose: 10.8 mg/kg/injection, schedule: Q04DX003 (ip), vehicle: clinical formulation) was 122 % of control and the T/C [1] was 108 % of control. The T/C [2] was 111 % of control and the T/C [3] was 120 % of control.
CC[C@@]1(O)C[C@H](OC2CC(N(C)C)C(OC3CC(O)C(OC4CCC(=O)C(C)O4)C(C)O3)C(C)O2)c2c(cc3c(c2O)C(=O)c2c(O)ccc(O)c2C3=O)[C@H]1C(=O)OC (stereo not given in full) was tested, and the T/C (dose: 1.56 mg/kg/injection, schedule: Q04DX003 (ip), vehicle: saline) was 116 % of control, the T/C (dose: 4.32 mg/kg/injection, schedule: Q04DX003 (ip), vehicle: saline) was 162 % of control and the T/C (dose: 7.2 mg/kg/injection, schedule: Q04DX003 (ip), vehicle: saline) was 189 % of control and 190 % of control and 220 % of control.
